# According to patent US10525115B2 (Immatics Biotechnologies GmbH, priority 2014, dated 2020):
# Key:
# healthy donor PBMC = test: Cross-checking IFN-γ ELISPOT assay, HLA class II LiTAPs, healthy donor PBMC; assay type: cell-based, human; settings: HLA class II peptide
# Experimental: (§1) PBMC from AML patients and healthy volunteers were cultured in RPMI1640 medium (Gibco) supplemented with 10% pooled human serum (PHS, produced in-house), […] β-mercaptoethanol (Roth, Karlsruhe, Germany) and 1% penicillin/streptomycin (GE). For CD8^+ T cell stimulation, PBMC were thawed and pulsed with 1 μg/ml per peptide. Peptide-pulsed PBMC (5-6×10^6 cells/ml) were cultured at 37° C. and 5% CO2 for 12 days. On day 0 and day 1, 5 ng/ml IL-4 (R&D Systems, Minneapolis, Minn., USA) and 5 ng/ml IL-7 (Promokine, Heidelberg, Germany) were added to the culture medium. On days 3, 5, 7 and 9, 2 ng/ml IL-2 (R&D Systems) were added to the culture medium. Peptide-stimulated PBMC were functionally characterized by ELISPOT assays on day 12 and by intracellular cytokine staining on day 13 respectively. For CD4^+ T-cell stimulation, culture was performed as described for CD8^+ T cells with 2 modifications: pulsing was carried out with 10 μg/ml of HLA class II peptide and no IL-4 and IL-7 was added.
# (§2) IFN-γ ELISPOT assays were carried out as described previously (Widenmeyer M, Griesemann H, Stevanovic S, Feyerabend S, Klein R, Attig S, et al. Promiscuous survivin peptide induces robust CD4+ T-cell responses in the majority of vaccinated cancer patients. Int J Cancer. 2012 Jul. 1; 131(1):140-9). In brief, 96-well nitrocellulose plates (Millipore) were coated with 1 mg/ml IFN-γ mAb (Mabtech, Cincinnati, Ohio, USA) and incubated over night at 4° C. Plates were blocked with 10% PHS for 2 h at 37° C. 5×10^5 cells/well of pre-stimulated PBMC were pulsed with 1 μg/ml (HLA class I) or 2.5 μg/ml (HLA class II) peptide and incubated for 24-26 h. Readout was performed according to manufacturer's instructions. Spots were counted using an ImmunoSpot S5 analyzer (CTL, Shaker Heights, Ohio, USA). T cell responses were considered to be positive when >15 spots/well were counted and the mean spot count per well was at least 3-fold higher than the mean number of spots in the negative control wells (according to the cancer immunoguiding program (CIP) guidelines).
# AML patient PBMC = test: 12-day recall IFN-γ ELISPOT assay, HLA class II LiTAPs, AML patient PBMC; assay type: cell-based, human; settings: HLA class II peptide
# Experimental: as §1, §2
# MHC class I = MHC class I binding assay (UV-exchange, β2m ELISA); parameters: species or system human; settings: yield of UV-exchange reaction
# Experimental: Candidate peptides for T cell based therapies according to the present invention were further tested for their MHC binding capacity (affinity). The individual peptide-MHC complexes were produced by exchange with the peptide of interest as analyzed. Only peptide candidates that can effectively bind and stabilize the peptide-receptive MHC molecules prevent dissociation of the MHC complexes. To determine the yield of the exchange reaction, an ELISA was performed based on the detection of the light chain (β2m) of stabilized MHC complexes. The assay was performed as generally described in Rodenko et al. (Rodenko, B. et al., Nat Protoc. 1 (2006): 1120-1132).
# 96 well MAXISorp plates (NUNC) were coated over night with 2 ug/ml streptavidin in PBS at room temperature, washed 4× and blocked for 1 h at 37° C. in 2% BSA containing blocking buffer. Refolded HLA-A*0201/MLA-001 monomers served as standards, covering the range of 15-500 ng/ml. Peptide-MHC monomers of the UV-exchange reaction were diluted 100 fold in blocking buffer. Samples were incubated for 1 h at 37° C., washed four times, incubated with 2 μg/ml HRP conjugated anti-β2m for 1 h at 37° C., washed again and detected with TMB solution that is stopped with […]. Absorption was measured at 450 nm. Candidate peptides that show a high exchange yield (preferably higher than 50%, most preferred higher than 75%) are generally preferred for a generation and production of antibodies or fragments thereof, and/or T cell receptors or fragments thereof, as they show sufficient avidity to the MHC molecules and prevent dissociation of the MHC complexes.
# MHC class I binding scores for the peptides as tested were; <20%=+; 20%-49%=++; 50%−75%=+++; >=75%=++++
# HLA-DR haplotypes = test: REVEAL MHC-peptide binding assay, panel of seven HLA-DR haplotypes; parameters: species or system human; settings: for number of formed HLA-peptide complexes stable for at least 24 h: of 5 formed complexes, 37° C.; for number of HLA-DR haplotypes with considerable binding capacity / number of HLA-DR haplotypes with which a complex was formed: of 7 investigated HLA-DR haplotypes
# Experimental: (§3) The promiscuous binding of GALNT7-001 and ERGIC1-001 to various HLA-DR haplotypes and the stability of the formed complexes was assessed in an in vitro binding assay.
# (§4) The seven investigated HLA-DR haplotypes are selected according to their frequencies in HLA-A*02- and HLA-A*24-positive North American populations. Data are derived from the analysis of 1.35 million HLA-typed volunteers registered in the National Marrow Donor Program (Mori M, Beatty P G, Graves M, Boucher K M, Milford E L (1997). HLA gene and haplotype frequencies in the North American population: the National Marrow Donor Program Donor Registry. Transplantation 64, 1017-1027). The analyzed population was subdivided in the following ethnic groups: Caucasian Americans (N=997,193), African Americans (N=110,057), Asian Americans (N=81,139), Latin Americans (N=100,128), and Native Americans (N=19,203).
# (§5) The MHC-peptide binding assay as used determined the ability of each candidate peptide to bind to the selected HLA class II haplotype and stabilize the HLA-peptide complex. For this, the candidate peptides are assembled in vitro with a particular HLA class II protein.
# (§6) The binding capacity of a candidate peptide to a particular HLA molecule is compared to a reference peptide with known very strong binding properties (positive control) for each HLA haplotype. Experimental standard errors derive from binding experiments of triplicated positive controls.
# (§7) Besides the affinity of a peptide to a particular HLA molecule, the enduring stability of the formed HLA-peptide complex is crucial for the occurrence of an immune response. For this reason the presence of the formed HLA-peptide complex is measured after its incubation for 24 h at 37° C. The stability of the formed MHC-peptide complex is calculated as a ratio of the binding scores at 24 h and the binding scores which are received right after the refolding (accordingly at time 0) in percent.
# HLA-DR2 = HLA-DR2 (Homo sapiens, UniProt P01903+P01911); test: REVEAL MHC-peptide binding assay; settings: for binding / complex formation: HLA-DR2
# HLA-DR2, sequence (P01903 26-216 limits assumed): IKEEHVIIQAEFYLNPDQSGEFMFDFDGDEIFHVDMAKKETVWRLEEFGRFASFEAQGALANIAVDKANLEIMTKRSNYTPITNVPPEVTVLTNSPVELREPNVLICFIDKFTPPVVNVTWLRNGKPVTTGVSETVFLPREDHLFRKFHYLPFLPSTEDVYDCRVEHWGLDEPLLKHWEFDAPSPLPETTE
# HLA-DR2, sequence (P01911 30-227 limits assumed): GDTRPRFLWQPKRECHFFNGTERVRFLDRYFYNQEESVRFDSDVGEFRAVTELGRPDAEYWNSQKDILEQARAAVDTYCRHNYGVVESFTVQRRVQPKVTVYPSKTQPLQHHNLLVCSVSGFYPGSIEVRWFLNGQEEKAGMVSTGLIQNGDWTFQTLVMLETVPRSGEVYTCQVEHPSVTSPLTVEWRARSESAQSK
# Experimental: as §3, §4, §5, §6, §7
# HLA-DR4 = test: REVEAL MHC-peptide binding assay; parameters: species or system human; settings: for binding / complex formation: HLA-DR4; for stability of the formed HLA-peptide complex: HLA-DR4, after 24 h at 37° C.; for binding score: HLA-DR4, compared to the positive control, over 15% = strong binding
# Experimental: as §3, §4, §5, §6, §7
# HLA-DR1 = test: REVEAL MHC-peptide binding assay; parameters: species or system human; settings: for binding / complex formation: HLA-DR1; for stability of the formed HLA-peptide complex: HLA-DR1, after 24 h at 37° C.
# Experimental: as §3, §4, §5, §6, §7
# HLA-DR3 = test: REVEAL MHC-peptide binding assay; parameters: species or system human
# Experimental: as §3, §4, §5, §6, §7
# HLA-DR5 = test: REVEAL MHC-peptide binding assay; parameters: species or system human; settings: for binding / complex formation: HLA-DR5; for stability of the formed HLA-peptide complex: HLA-DR5, after 24 h at 37° C.
# Experimental: as §3, §4, §5, §6, §7
# HLA-DR6 = test: REVEAL MHC-peptide binding assay; parameters: species or system human
# Experimental: as §3, §4, §5, §6, §7
# HLA-DR7 = test: REVEAL MHC-peptide binding assay; parameters: species or system human; settings: for binding / complex formation: HLA-DR7; for stability of the formed HLA-peptide complex: HLA-DR7, after 24 h at 37° C.
# Experimental: as §3, §4, §5, §6, §7
substance,measurement,setting,value
TEGQFVDLTGNRLTYT (listed as Homo sapiens) [SEQ ID NO 544],"IFN-γ secretion in ELISPOT, healthy donor PBMC (positive/tested)",healthy donor PBMC,0/8
same,"T cell responses (IFN-γ ELISPOT), share of AML patients",AML patient PBMC,13.3%
same,T cell responses (IFN-γ ELISPOT) in AML patients (positive/tested),AML patient PBMC; listed as P[[I]]II3,significant increase in IFN-γ production
same,T cell responses (IFN-γ ELISPOT) in AML patients (positive/tested),AML patient PBMC; listed as P^II3,2/15
54 (AVIEAEKIAQV; listed as Homo sapiens) [compound 54],Peptide exchange (MHC class I binding score),MHC class I,++++ (>=75%=++++)
251 (VLGGKAFLEHL; listed as Homo sapiens) [compound 251],Peptide exchange (MHC class I binding score),MHC class I,++++ (>=75%=++++)
GNQLFRINEANQLMQ (listed as Homo sapiens) [SEQ ID NO 597],number of formed HLA-peptide complexes stable for at least 24 h,HLA-DR haplotypes,4
same,number of HLA-DR haplotypes with considerable binding capacity,HLA-DR haplotypes,at least 4
same,number of HLA-DR haplotypes with which a complex was formed,HLA-DR haplotypes,5
same,binding / complex formation,HLA-DR2,form a complex
same,binding score,"HLA-DR2; HLA-DR2, compared to the positive control, over 15% = strong binding",over 15%
same,binding / complex formation,HLA-DR4,form a complex
same,stability of the formed HLA-peptide complex,HLA-DR4,stable
same,binding score,HLA-DR4,over 15%
same,binding / complex formation,HLA-DR1,form a complex
same,stability of the formed HLA-peptide complex,HLA-DR1,stable
same,binding score,"HLA-DR1; HLA-DR1, compared to the positive control, over 15% = strong binding",over 15%
same,binding / complex formation,HLA-DR3,did not bind
same,binding / complex formation,HLA-DR5,form a complex
same,stability of the formed HLA-peptide complex,HLA-DR5,stable
same,binding / complex formation,HLA-DR6,did not bind
same,binding / complex formation,HLA-DR7,form a complex
same,stability of the formed HLA-peptide complex,HLA-DR7,stable
same,binding score,"HLA-DR7; HLA-DR7, compared to the positive control, over 15% = strong binding",over 15%
SPNIVIALSGNKADLA (listed as Homo sapiens) [SEQ ID NO 558],"IFN-γ secretion in ELISPOT, healthy donor PBMC (positive/tested)",healthy donor PBMC,0/8
same,"T cell responses (IFN-γ ELISPOT), share of AML patients",AML patient PBMC,20.0%
same,T cell responses (IFN-γ ELISPOT) in AML patients (positive/tested),AML patient PBMC; listed as P[[I]]II2,significant increase in IFN-γ production
same,T cell responses (IFN-γ ELISPOT) in AML patients (positive/tested),AML patient PBMC; listed as P^II2,3/15
36 (SLLYKVPYV; listed as Homo sapiens) [compound 36],Peptide exchange (MHC class I binding score),MHC class I,++++ (>=75%=++++)
HRSFVDLSGHNLANPHP (listed as Homo sapiens) [SEQ ID NO 478],"IFN-γ secretion in ELISPOT, healthy donor PBMC (positive/tested)",healthy donor PBMC,0/8
same,"T cell responses (IFN-γ ELISPOT), share of AML patients",AML patient PBMC,26.7%
same,T cell responses (IFN-γ ELISPOT) in AML patients (positive/tested),AML patient PBMC; listed as PII1,significant increase in IFN-γ production
same,T cell responses (IFN-γ ELISPOT) in AML patients (positive/tested),AML patient PBMC; listed as P^II1,4/15
FEGQFSINKVPGNFHVS (listed as Homo sapiens) [SEQ ID NO 604],number of formed HLA-peptide complexes stable for at least 24 h,HLA-DR haplotypes,4
same,number of HLA-DR haplotypes with considerable binding capacity,HLA-DR haplotypes,at least 2
same,number of HLA-DR haplotypes with which a complex was formed,HLA-DR haplotypes,5
same,binding / complex formation,HLA-DR2,form a complex
same,binding / complex formation,HLA-DR4,form a complex
same,stability of the formed HLA-peptide complex,HLA-DR4,stable
same,binding score,HLA-DR4,≥ 15%
same,binding / complex formation,HLA-DR1,form a complex
same,stability of the formed HLA-peptide complex,HLA-DR1,stable
same,binding / complex formation,HLA-DR3,did not bind
same,binding / complex formation,HLA-DR5,form a complex
same,stability of the formed HLA-peptide complex,HLA-DR5,stable
same,binding score,"HLA-DR5; HLA-DR5, compared to the positive control, over 15% = strong binding",≥ 15%
same,binding / complex formation,HLA-DR6,did not bind
same,binding / complex formation,HLA-DR7,form a complex
same,stability of the formed HLA-peptide complex,HLA-DR7,stable
266 (KLQEQLAQL; listed as Homo sapiens) [compound 266],Peptide exchange (MHC class I binding score),MHC class I,++++ (>=75%=++++)
